Measurements published in patent publication US8440648B2, “Methods and compositions for treatment of intraepithelial neoplasia” (Erimos Pharmaceuticals LLC, priority 2004, dated 2013).

Legend:
[1] = test system: Cervical Intraepithelial Neoplasia (CIN); test: Pilot clinical trial of intravaginal M4N: preliminary efficacy from cervical biopsies; format: in vivo, women; conditions: three patients, 3 weekly doses of 1% M4N in white petrolatum
From the text: (§1) This study was designed to look at the systemic and local toxicity of tetra-O-methyl NDGA (M4N) administered intravaginally to women once a week for three weeks. Patients, at the time of screening, had visible cervical lesions, were HPV positive, and had previous biopsy confirmed Cervical Intraepithelial Neoplasia (CIN). Cervical biopsies were taken at Day 1 and follow up biopsies were taken at Day 71. Five patients have been enrolled in the study, and three patients have completed the study through Day 71.
Preliminary efficacy data was collected from cervical biopsies at Day 1 and Day 71 from the three patients that completed the Day 71 visit after receiving 3 doses of the 1% formulation of M4N.

[2] = Serum levels of M4N in the fourteen day rabbit intravaginal study; format: in vivo, New Zealand White rabbits; conditions: M4N 20 mg/g in white petrolatum, 1 mL intravaginally daily, rabbits; levels inconsistent, minimal absorption
Method: Fourteen Day Rabbit Intravaginal Topical Toxicology Study. […] Ten female rabbits (5 per group) were dosed.

[3] = test system: women with Cervical Intraepithelial Neoplasia; test: Pilot clinical trial of intravaginal M4N: systemic and local toxicity; format: in vivo
From the text: as §1
(§2) The first four patients received 5 mL of a 1% formulation of M4N in white petrolatum once weekly for each of three weekly doses. […] One patient received 5 mL of a 2% M4N formulation in white petrolatum at each of two weekly doses to date. […] The relationship to the study drug administration is unknown.

[4] = test system: New Zealand White rabbits; test: Fourteen day rabbit intravaginal topical toxicology study (local and systemic toxicity); conditions: M4N 20 mg/g in white petrolatum
Method: This study was designed to look at the local and systemic toxicity of tetra-O-methyl NDGA (M4N) administered intravaginally in New Zealand White rabbits for 14 days. Rabbits were dosed daily with 1 mL of a white petrolatum formulation of M4N (20 mg/g) or placebo. Ten female rabbits (5 per group) were dosed. Local effects of drug were scored using the Draize scoring system daily, and gross pathology and histopathology was obtained at necropsy on termination of the dosing period.

[5] = Pilot clinical trial of intravaginal M4N: serum levels; format: in vivo; conditions: after intravaginal administration of the 1% formulation in white petrolatum, women
From the text: as §1, §2

[6] = 1 mL intravaginally daily for 14 days

In the case of COc1ccc(C[C@@H](C)[C@@H](C)Cc2ccc(OC)c(OC)c2)cc1OC [M4N, meso-1,4-bis(3,4-dimethoxyphenyl)-2,3-dimethylbutane], the “Response in cervical biopsies, Day 71 versus Day 1” value [1] is reported as “one patient had a complete response, one patient had a partial response, and one patient showed disease progression”, the “Serum level at peak concentration” value [2] is reported as “less than 10 ng/mL” and the Irritation or toxicity ([3]; 5 mL of 1% M4N in white petrolatum intravaginally once weekly, three doses, four patients) is reported as “No irritation or toxicity was reported”. For the same compound, the “Vaginal irritation or toxicity” value ([3]; 5 mL of 2% M4N in white petrolatum intravaginally, two weekly doses, one patient) was “No vaginal irritation or toxicity was reported”, the Vulvar irritation ([3]; 5 mL of 2% M4N in white petrolatum intravaginally, two weekly doses, one patient, relationship to drug unknown) was “minor vulvar irritation was reported” and the “Vaginal observations: mild edema, animals affected” value [4, 6] was 2/5. For the same compound, the “Vaginal observations: mild erythema, animals affected” value [4, 6] was 3/5, the “Survival until scheduled termination” value ([4]; 1 mL intravaginally daily for 14 days, rabbits) was “All animals survived until scheduled termination” and the “Vaginal observations: minimal edema, animals affected” value ([4]; 1 mL intravaginally daily for 14 days, control 2/5) was 1/5. The “Weekly clinical and twice daily cage-side observations” value ([4]; intravaginally daily for 14 days) was “No findings were noted”, the Clinical pathology findings ([4]; intravaginally daily for 14 days, considered incidental) was “lower absolute basophil counts, and ALT values” and the Histopathology findings ([4]; intravaginally daily for 14 days, relation to drug unknown) was “in one M4N-treated rabbit, heterophil infiltrates were seen in the vaginal mucosa”. For the same compound, the Serum levels [5] was “below limit of quantification”.
